Results taken from patent publication US20230338392A1, “SUBCUTANEOUS ADMINISTRATION OF AN ASBT INHIBITOR” (Albireo AB, priority 2022, published 2023).

What was measured:
[1] = system: KIM-1 (kidney injury molecule-1); assay: DDC model: mRNA expression of renal proximal tubule cell injury marker KIM-1; assay type: in vivo, male C57BL/6J WT mice; details: DDC cholestatic mice, s.c. elobixibat versus vehicle, 14 days (FIG. 6)
Source text: (§1) Chronic feeding of 3,5-diethoxycarbonyl-1,4-dihydrocollidine (DDC) was used as an in vivo model for cholestatic liver injury. Chronic feeding of DDC produces an intraductal porphyrin plug which leads to ductular obstruction contributing to damage of biliary epithelia. The time course of the DDC model usually ranges from 1 to 6 weeks, depending on the severity of the cholangiopathy that the study requires. Chronic feeding of DDC in mice reproduces the main histopathological hallmarks of human cholestatic disease such as (1) remodeling of biliary compartments giving rise to ductular reaction, (2) periductular fibrosis, and (3) inflammatory infiltrate (Mariotti et al., Biochim Biophys Acta Mol Basis Dis 2018, vol. 1864, p. 1254-1261; Pose et al., Methods Mol. Biol. 2019, vol. 1981, p. 249-257).
(§2) Male C57BL/6J WT mice of 8 weeks old were used. After completion of quarantine and acclimatization period, animals were randomized based on body weight into experimental groups (n=7-9/group). Animals were fed chow (control diet) or chow plus 0.1% DDC (DDC diet) for 14 days, and treated once daily with vehicle (s.c.) or the ASBT inhibitor elobixibat at a dose of 0.3, 1.0 or 3.0 mg/kg (s.c.), as shown in Table 1. Animals were weighed at days 7, 11 and 14. Blood samples were collected at day 7. On day 11, animals were moved to individual cages with wire bottom for fecal collection. […]

[2] = Plasma concentration following subcutaneous or intravenous administration; assay type: in vivo, male C57BL/6 mice
Protocol: Elobixibat was administered to male C57BL/6 mice (n=5) as a subcutaneous injection at a dose of 3 or 10 mg/kg or as an intravenous injection at a dose of 1 mg/kg (single injections), or as repeated subcutaneous injections at a dose of 1 mg/kg at day 1 and day 5. Elobixibat was formulated in 70% PEG400; 10% ethanol; and 20% water and given at a dosing volume of 5 mL/kg subcutaneously or 1 mL/kg intravenously. Blood samples were collected after 0.25, 0.5, 1, 2, 4, 6, 8 and 24 hours following subcutaneous administration and after 0.083, 0.25, 0.5, 1, 2, 4, 6, 8 and 24 hours following intravenous administration. Blood samples were taken from saphenous vein. 0.2% EDTA was used as the anticoagulant. The samples were analyzed by a discovery grade bioanalytical method developed for the estimation of elobixibat in plasma, using an LC-MS/MS system.
The results for single subcutaneous (3 or 10 mg/kg) and intravenous (1 mg/kg) administrations are shown in FIG. 1, and the results for repeated subcutaneous administrations (1 mg/kg at day 1 and day 5) are shown in FIG. 2.

LCN2 (lipocalin-2) = assay: DDC model: mRNA expression of renal proximal tubule cell injury marker LCN2; assay type: in vivo, male C57BL/6J WT mice; details: DDC cholestatic mice, s.c. elobixibat versus vehicle, 14 days (FIG. 7)
Source text: as §1, §2

DDC mice = assay: DDC in vivo model of cholestatic disease: serum chemistries; set-up: species or system male C57BL/6J WT mice
Source text: as §1
Male C57BL/6J WT mice of 8 weeks old were used. After completion of quarantine and acclimatization period, animals were randomized based on body weight into experimental groups (n=7-9/group). Animals were fed chow (control diet) or chow plus 0.1% DDC (DDC diet) for 14 days, and treated once daily with vehicle (s.c.) or the ASBT inhibitor elobixibat at a dose of 0.3, 1.0 or 3.0 mg/kg (s.c.), as shown in Table 1. Animals were weighed at days 7, 11 and 14. Blood samples were collected at day 7. On day 11, animals were moved to individual cages with wire bottom for fecal collection. Blood, urine, tissue samples and 3-day fecal samples were collected at day 14.
Endpoints measured at the end of the study include fecal bile acid excretion, urine and serum bile acid concentration and composition, and serum chemistries reflecting liver status.

[3] = subcutaneous administration (FIG. 1)

For CCCCC1(CCCC)CN(c2ccccc2)c2cc(SC)c(OCC(=O)N[C@@H](C(=O)NCC(=O)O)c3ccccc3)cc2S(=O)(=O)C1 [elobixibat, 1,1-dioxo-3,3-dibutyl-5-phenyl-7-methylthio-8-(N-{(R)-1′-phenyl-1′-[N′-(carboxymethyl)-carbamoyl]methyl}carbamoylmethoxy)-2,3,4,5-tetrahydro-1,5-benzothiazepine], the “mRNA expression for KIM-1” value [1] was “reduced”, the clearance ([2]; intravenous administration (FIG. 1)) was “quick clearance” and the bioavailability [2, 3] was “high bioavailability”. The “duration of constant exposure” value [2, 3] was “more than 24 hours”, the “mRNA expression for LCN2” value (LCN2 (lipocalin-2)) was “reduced” and the “serum alkaline phosphatase (ALP) levels” value (DDC mice; s.c. once daily 0.3, 1.0 or 3.0 mg/kg for 14 days (FIG. 5)) was “dose-dependent trend towards reduced”. For the same molecule, the serum bile acids (DDC mice; s.c. once daily 0.3, 1.0 or 3.0 mg/kg for 14 days, reduced at lowest dose, no additional reduction at higher doses (FIG. 3)) was “statistically significant reduction” and the serum total bilirubin (DDC mice; s.c. once daily 0.3, 1.0 or 3.0 mg/kg for 14 days, reduced at lowest dose, no additional reduction at higher doses (FIG. 4)) was “statistically significant reduction”.
